Laboratory results as given in patent US20050124032A1 (priority 2002, published 2005).

Test system: X. dendrorhous Y-2476
Type: cell-based, Xanthophyllomyces dendrorhous

With CC1=C(C)C(=O)C(C)=C(C)C1=O [duroquinone] as the molecule, how does the Reduction of growth read?
The Reduction of growth was 15-25%.
